The NIST ThermoML archive (doi:10.1016/j.jct.2008.07.011)
Numbers after ± are expanded uncertainties.

Assay: osmotic coefficient (dimensionless); mn = molality of the nth substance listed, in mol/kg
Conditions: Liquid, vapor pressure osmometry

CCCCCn1cc[n+](C)c1.[Br-] [1-pentyl-3-methylimidazolium bromide] + O
osmotic coefficient
Conditions	298.15 K	308.15 K	318.15 K	328.15 K
m1 = 0.0179	0.911 ± 0.037	0.987 ± 0.039	0.94 ± 0.038	1.01 ± 0.04
m1 = 0.025	0.925 ± 0.037	0.964 ± 0.039	0.924 ± 0.037	0.996 ± 0.04
m1 = 0.0301	0.906 ± 0.036	0.933 ± 0.037	0.912 ± 0.037	0.982 ± 0.039
m1 = 0.0518	0.878 ± 0.035	0.892 ± 0.036	0.895 ± 0.036	0.955 ± 0.038
m1 = 0.0722	0.861 ± 0.035	0.872 ± 0.035	0.882 ± 0.036	0.92 ± 0.037
m1 = 0.0904	0.852 ± 0.034	0.856 ± 0.035	0.871 ± 0.035	0.91 ± 0.037
m1 = 0.1155	0.826 ± 0.034	0.843 ± 0.034	0.857 ± 0.035	0.852 ± 0.034
m1 = 0.1697	0.808 ± 0.033	0.811 ± 0.033	0.831 ± 0.034	0.843 ± 0.034
m1 = 0.2113	0.793 ± 0.033	0.798 ± 0.033	0.816 ± 0.033	0.827 ± 0.034
m1 = 0.2308	0.785 ± 0.032	0.786 ± 0.032	0.813 ± 0.033	0.811 ± 0.033
m1 = 0.3311	0.745 ± 0.031	0.76 ± 0.032	0.776 ± 0.032	0.782 ± 0.032
m1 = 0.3787	0.726 ± 0.031	0.745 ± 0.031	0.762 ± 0.032	0.766 ± 0.032
m1 = 0.4716	0.704 ± 0.03	0.727 ± 0.031	0.749 ± 0.031	0.754 ± 0.031
m1 = 0.5627	0.694 ± 0.03	0.709 ± 0.03	0.72 ± 0.03	0.734 ± 0.031
m1 = 0.6532	0.679 ± 0.029	0.689 ± 0.03	0.697 ± 0.03	0.706 ± 0.03
m1 = 0.7246	0.669 ± 0.029	0.682 ± 0.03	0.692 ± 0.03	0.697 ± 0.03
m1 = 0.8353	0.657 ± 0.029	0.666 ± 0.029	0.68 ± 0.029	0.681 ± 0.029
m1 = 1.026	0.618 ± 0.028	0.637 ± 0.029	0.632 ± 0.028	0.649 ± 0.029
m1 = 1.509	0.583 ± 0.028	0.588 ± 0.028	0.594 ± 0.028	0.608 ± 0.028
m1 = 2.005	0.561 ± 0.027	0.565 ± 0.027	0.568 ± 0.027	0.594 ± 0.028
